Test results reported in patent publication US20250353859A1, “COMPOUNDS AS CCR6 INHIBITORS” (Hoffmann-La Roche Inc., priority 2023, published 2025).

How the values were obtained:
human CCR6 [1] = molecular target: T1, human CCR6 (Homo sapiens, UniProt P51684); assay: CHO-K1 CCR6 chemotaxis assay towards CCL20; format: cell-based; details: CHO-K1 cells overexpressing human CCR6; 100 ng/ml CCL20, 4 h; relative Log IC50
T1 sequence (P51684 1-374): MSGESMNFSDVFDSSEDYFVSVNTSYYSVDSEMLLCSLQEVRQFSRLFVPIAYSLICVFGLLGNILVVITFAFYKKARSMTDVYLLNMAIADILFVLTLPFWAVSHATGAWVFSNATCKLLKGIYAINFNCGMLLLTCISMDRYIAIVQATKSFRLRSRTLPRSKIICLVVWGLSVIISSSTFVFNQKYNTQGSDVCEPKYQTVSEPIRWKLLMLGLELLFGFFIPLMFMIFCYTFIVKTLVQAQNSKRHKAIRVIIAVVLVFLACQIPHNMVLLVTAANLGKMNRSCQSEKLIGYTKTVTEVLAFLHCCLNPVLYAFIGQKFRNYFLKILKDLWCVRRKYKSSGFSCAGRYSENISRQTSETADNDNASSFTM
Source text: Cells overexpressing human CCR6 were used in the chemotaxis assay (DiscoverX, cAMP Hunter™ CHO-K1 CCR6 Gi Cell Line). Growth medium of these cells consisted of DMEM/F12, non-essential Amino acids (1×NEAA, Gibco 11140050), 10% FBS and 1× pen/strep (Gibco 15140). For the chemotaxis assay, Corning Transwell plates were used with a pore size of 8 m (Corning 351164). Cells were harvested using trypsin and diluted to 4*10^6 cells/ml in chemotaxis medium (DMEM, 0.25% BSA, pen/strep). Compounds were four-fold serially diluted in DMSO. Further dilutions were made in chemotaxis medium. Cells were incubated with test compounds for 30 min at 37° C. prior to initiation of the assay (2*10^6 cells/ml). Final DMSO concentration in the assay was 0.2%. Wells of the Transwell plates were filled with 200 μl chemotaxis medium containing 100 ng/ml CCL20 (R&D systems 360-MP). 50 μl of the cell/compound suspension was added to the inserts of the Transwell plates (100,000 cells/insert). The Transwell plates were placed in an incubator at 37° C., 5% CO2 for 4 h. After 4 h, the number of migrated cells was quantified using CellTiter Glo (Promega). Percentage inhibition values were calculated based on the low and high signal obtained with 0.2% DMSO in chemotaxis medium without and with CCL20, respectively. The relative Log IC50 was determined with GraphPad Prism 9 using a four-parameter dose-response model.

human CCR6 [2] = molecular target: T1, human CCR6; assay: Human CCR6-CRE reporter assay; format: cell-based; design: The second construct contained the open reading frame of human CCR6 in the pUNO1 backbone; host or cells: 293FT cells (transient transfection with TransIT-293); details: 293FT cells transfected with human CCR6 and CRE-luciferase; Forskolin + CCL20, 5 h; relative Log IC50; read-out: CCR6-CRE reporter (converted)
Description: 293FT cells were transfected with 2 constructs using TransIT-293 (Mirus). The first construct (pGL4.29, Promega) expressed the luciferase reporter gene luc2P in response to the binding of cAMP-induced CREB to the CREelement in its promoter. The second construct contained the open reading frame of human CCR6 in the pUNO1 backbone under the control of an enhanced CMV promoter(InVivoGen).48 h after transfection, cells were harvested and diluted to 750,000 cells/ml in culture medium (DMEM, 10% FBS, 1× pen/strep(Gibco 15140)). Compounds were 2.5-fold serially diluted in DMSO. Further dilutions were made in assay medium (DMEM, 10% FBS, 1× pen/strep, 6 μM Forskolin, 6 nM CCL20). 4 μl of the compound solution was added to a white MW384 plate, followed by […] of the cell suspension. Final DMSO concentration in the assay was 0.1%. The MW384 plate was placed in an incubator at 37° C., 5% CO2 for 5 h. Luciferase activity was determined by addition of 24 μl of a 2.5× diluted BriteLite luciferase solution(Perkin Elmer), followed by luminescence measurement using a VICTOR Plate reader (Perkin Elmer). […] The relative Log IC50 was determined with GraphPad Prism 9 using a four-parameter dose-response model.

IC50 (human CCR6 [1])	IC50 (human CCR6 [2])	SMILES
20 nM	63.1 nM	N#Cc1n[nH]c2ccc(-c3ccc(S(=O)(=O)N4CCC(Nc5ccc(OC(F)(F)F)cc5)CC4)cc3)cc12 [Example 14, 5-{4-[(4-{[4-(trifluoromethoxy)phenyl]Amino}piperidin-1-yl)sulfonyl]phenyl}-1H-indazole-3-carbonitrile]
10 nM		N#Cc1c[nH]c2ccc(-c3ccc(S(=O)(=O)N4CCC(Nc5ccc(OC(F)(F)F)cn5)CC4)cc3)cc12 [Example 15, 5-{4-[(4-{[5-(trifluoromethoxy)pyridin-2-yl]Amino}piperidin-1-yl)sulfonyl]phenyl}-1H-indole-3-carbonitrile]
39.8 nM		O=c1[nH]nc2ccc(-c3ccc(S(=O)(=O)N4CCC(Nc5ccc(OC(F)(F)F)cc5)CC4)cc3)cn12 [Example 23, 6-{4-[(4-{[4-(trifluoromethoxy)phenyl]Amino}piperidin-1-yl)sulfonyl]phenyl}-2H,3H-[1,2,4]triazolo[4,3-a]pyridin-3-one]
31.6 nM	79.4 nM	O=c1[nH]nc2ccc(-c3ccc(S(=O)(=O)N4CCC(Nc5ccc(OC(F)(F)F)cn5)CC4)cc3)cn12 [Example 24, 6-{4-[(4-{[5-(trifluoromethoxy)pyridin-2-yl]Amino}piperidin-1-yl)sulfonyl]phenyl}-2H,3H-[1,2,4]triazolo[4,3-a]pyridin-3-one]
126 nM		N#Cc1c[nH]c2ccc(-c3ccc(S(=O)(=O)N4CCC(Nc5ccc(OC(F)F)cc5)CC4)cc3)cc12 [Example 29, 5-{4-[(4-{[4-(difluoromethoxy)phenyl]Amino}piperidin-1-yl)sulfonyl]phenyl}-1H-indole-3-carbonitrile]
20 nM	100 nM	Cc1cc(-c2ccc(S(=O)(=O)N3CCC(Nc4ccc(SC(F)(F)F)cc4)CC3)cc2)cn2c(C(C)C)cnc12 [Example 33, 1-{4-[8-methyl-3-(propan-2-yl)imidazo[1,2-a]pyridin-6-yl]benzenesulfonyl}-N-{4-[(trifluoromethyl)sulfanyl]phenyl}piperidin-4-amine]
63.1 nM	158 nM	Cc1cnc2ccc(-c3ccc(S(=O)(=O)[C@H]4CC[C@H](Nc5ccc(OC(F)(F)F)cc5)CC4)cc3)cn12 [Example 41, N-[trans-4-(4-{3-methylimidazo[1,2-a]pyridin-6-yl}benzenesulfonyl)cyclohexyl]-4-(trifluoromethoxy)aniline]
79.4 nM	158 nM	Cc1cnc2ccc(-c3ccc(S(=O)(=O)[C@H]4CC[C@H](Nc5ccc(OC(F)(F)F)cn5)CC4)cc3)cn12 [Example 42, N-[trans-4-(4-{3-methylimidazo[1,2-a]pyridin-6-yl}benzenesulfonyl)cyclohexyl]-5-(trifluoromethoxy)pyridin-2-amine]
79.4 nM	79.4 nM	O=S(=O)(c1ccc(-c2ccc3nccn3c2)cc1)[C@H]1CC[C@H](Nc2ccc(OC(F)(F)F)cc2)CC1 [Example 43, N-[trans-4-(4-{imidazo[1,2-a]pyridin-6-yl}benzenesulfonyl)cyclohexyl]-4-(trifluoromethoxy)aniline]
6.31 nM	20 nM	N#Cc1c[nH]c2ccc(-c3ccc(S(=O)(=O)[C@H]4CC[C@H](Nc5ccc(SC(F)(F)F)cc5)CC4)cc3)cc12 [Example 44, 5-(4-{[trans-4-({4-[(trifluoromethyl)sulfanyl]phenyl}Amino)cyclohexyl]sulfonyl}phenyl)-1H-indole-3-carbonitrile]
794 nM	63.1 nM	O=S(=O)(c1ccc(-c2ccc3nccn3c2)cc1)[C@H]1CC[C@H](Nc2cccc(SC(F)(F)F)c2)CC1 [Example 46, N-[trans-4-(4-{imidazo[1,2-a]pyridin-6-yl}benzenesulfonyl)cyclohexyl]-3-[(trifluoromethyl)sulfanyl]aniline]
	126 nM	O=S(=O)(c1ccc(-c2ccc3nccn3c2)cc1)[C@H]1CC[C@H](Nc2ccc(OC(F)(F)F)cn2)CC1 [Example 73, N-[trans-4-(4-{imidazo[1,2-a]pyridin-6-yl}benzenesulfonyl)cyclohexyl]-5-(trifluoromethoxy)pyridin-2-amine]
